Results as given in paper PMC11648915, “Identification and development of TRPM4 antagonists to counteract neuronal excitotoxicity” (iScience, 2024).
Read-outs that look alike come from different tables or passages of the source.

Key:
human TRPM5 = target: T1, human TRPM5 (Homo sapiens, UniProt Q9NZQ8); assay: QPatch automated patch clamp on TRPM5-expressing HEK293 cells; type: cell-based; conditions: hsTRPM5-expressing HEK293 cells
T1 sequence (Q9NZQ8 1-1165): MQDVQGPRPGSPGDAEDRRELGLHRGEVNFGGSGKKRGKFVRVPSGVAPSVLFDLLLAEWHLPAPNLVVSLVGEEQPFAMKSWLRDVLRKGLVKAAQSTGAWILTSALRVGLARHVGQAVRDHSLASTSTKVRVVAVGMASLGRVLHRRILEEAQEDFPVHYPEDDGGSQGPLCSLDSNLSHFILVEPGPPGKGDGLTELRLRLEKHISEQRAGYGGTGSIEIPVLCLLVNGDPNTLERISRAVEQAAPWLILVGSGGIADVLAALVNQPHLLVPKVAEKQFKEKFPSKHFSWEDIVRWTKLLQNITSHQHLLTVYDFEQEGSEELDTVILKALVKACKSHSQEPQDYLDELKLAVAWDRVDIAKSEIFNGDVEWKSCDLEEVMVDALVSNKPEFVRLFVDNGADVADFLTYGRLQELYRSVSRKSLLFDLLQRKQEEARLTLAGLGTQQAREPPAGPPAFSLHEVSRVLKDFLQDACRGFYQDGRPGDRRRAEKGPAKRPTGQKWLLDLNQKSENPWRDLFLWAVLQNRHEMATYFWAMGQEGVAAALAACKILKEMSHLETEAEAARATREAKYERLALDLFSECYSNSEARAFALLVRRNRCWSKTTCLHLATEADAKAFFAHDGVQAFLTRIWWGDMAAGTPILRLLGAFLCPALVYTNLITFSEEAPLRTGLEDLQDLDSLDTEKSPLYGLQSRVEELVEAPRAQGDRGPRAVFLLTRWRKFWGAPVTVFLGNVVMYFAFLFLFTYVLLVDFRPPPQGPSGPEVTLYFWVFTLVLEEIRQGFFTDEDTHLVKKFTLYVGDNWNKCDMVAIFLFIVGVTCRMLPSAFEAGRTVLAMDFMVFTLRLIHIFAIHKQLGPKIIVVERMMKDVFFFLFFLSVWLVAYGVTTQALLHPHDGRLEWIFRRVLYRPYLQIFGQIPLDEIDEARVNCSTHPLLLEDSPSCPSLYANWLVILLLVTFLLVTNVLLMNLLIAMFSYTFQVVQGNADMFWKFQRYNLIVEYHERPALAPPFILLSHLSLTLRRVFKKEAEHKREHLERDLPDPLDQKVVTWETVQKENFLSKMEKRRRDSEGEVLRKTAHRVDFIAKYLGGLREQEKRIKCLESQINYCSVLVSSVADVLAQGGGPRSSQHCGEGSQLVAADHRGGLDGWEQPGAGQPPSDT
From the text: The counter screening phase involved the inclusion of hsTRPM5-expressing HEK293 cells, as closest homologue, and the parental HEK293 cell line to evaluate selectivity. […] Based on categorization of biological activity, mass spectrometry quality control, and aspects of medicinal chemistry, we prioritized 144 selective hsTRPM4 compounds. These compounds were then subjected to automated patch clamp electrophysiology measurements (QPatch[58]) to evaluate their activity profiles and IC50 values (Figures 1A, S1, and S2).
QPatchHTX, an automated electrophysiology platform, was used in single hole mode. One day before use human TRPM4- or TRPM5-expressing HEK293 cells were seeded in a T75 flask at a density of 53k cells per cm^2 and at passages < 23. For QPatch assays, cells were harvested and re-suspended in SFM (Gibco, 11686029). The extracellular solution was (in mM): CaCl2 (7), MgCl2 (2), KCl (5), HEPES (10), NaCl (70), NMDG (70); pH 7.4 with NaOH. The intracellular solution was (in mM): HEPES (10), NMDG (100), NaCl (50), EGTA (20), MgCl2 (1), CaCl2 (21); pH 7.2 with HCl. After break-in, channels were consistently open and current through the channels could be observed at a voltage ramp from –100 mV to +100 mV over 500 ms. This protocol was repeated every 7 seconds. After saline and vehicle application, the channel was desensitized and residual current was used as baseline. FFA was used as reference compound and applied cumulatively with each concentration incubating at a minimum of 20 voltage protocol runs (140 seconds) with the current after addition of FFA being calculated as full block. […] Each compound was measured at least 3 time independently.

[1] = Microsome clearance (mouse); type: in vitro ADME; conditions: mouse liver microsomes, 45 min, NADPH
Experimental: Human or mouse liver microsomes were incubated with the test compound at a concentration of 1 μM for 45 min in the presence of cofactor (NADPH in excess). Samples were collected at various time points, and % remaining of test compound was determined using mass spectrometry (LC-MS/MS) to calculate hepatic clearance rate (L/h/kg).

CYP2D6 = target: T2, CYP2D6 (Homo sapiens, UniProt P10635); assay: CYP inhibition assay 2D6; type: in vitro ADME
T2 construct: purchased BD Gentest
T2 sequence (P10635 whole entry): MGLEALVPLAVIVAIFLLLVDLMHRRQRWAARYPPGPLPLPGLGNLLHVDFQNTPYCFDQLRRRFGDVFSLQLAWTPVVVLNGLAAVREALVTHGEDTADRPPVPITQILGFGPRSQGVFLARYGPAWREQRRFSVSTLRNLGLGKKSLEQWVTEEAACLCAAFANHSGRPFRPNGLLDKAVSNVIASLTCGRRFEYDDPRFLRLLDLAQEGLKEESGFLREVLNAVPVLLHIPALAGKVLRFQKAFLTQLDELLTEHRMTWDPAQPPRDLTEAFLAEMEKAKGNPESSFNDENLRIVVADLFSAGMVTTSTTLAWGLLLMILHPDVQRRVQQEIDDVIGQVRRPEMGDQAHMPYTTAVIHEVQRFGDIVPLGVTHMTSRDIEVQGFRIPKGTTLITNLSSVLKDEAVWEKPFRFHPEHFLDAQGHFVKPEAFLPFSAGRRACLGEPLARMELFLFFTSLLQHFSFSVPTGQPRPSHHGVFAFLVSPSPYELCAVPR
Experimental: The half-maximal inhibitory concentration (IC50) for cytochrome P450 (CYP) enzymes was determined using an in vitro enzyme inhibition assay. Recombinant CYP enzymes or human liver microsomes from BD Gentest, in 0.1 M phosphate buffer pH 7.4, containing native CYP enzymes were incubated with the test compound at various concentrations (1, 3, 10 and 30 μM) and containing 0.5% DMSO and 0.1% BSA final concentrations. 1 mM of NADPH cofactor was added and the reaction was started by a rapid increase of temperature until 37°C.

[2] = Parallel Artificial Membrane Permeability Assay (PAMPA); type: in vitro ADME; conditions: pH not given
Experimental: Parallel Artificial Membrane Permeability Assay (PAMPA) was performed using artificial lipid membrane layers to assess passive permeability of the test compound. Test compounds were diluted to 200 μM in system buffer at pH 5.0, 6.2 and 7.4. The solutions were filtered and 150 μL transferred to a High Sensitivity 96 well UV plate. This was analysed by UV as the reference plate. A 200 μL sample of the 200 μM solution was transferred to the ‘donor’ plate of the PAMPA pIon sandwich plate system. 200 μL of acceptor sink buffer was transferred to the ‘acceptor’ plate which had been previously treated with GIT-O lipid solution across the well filter. Donor and acceptor plates were sandwiched and kept in a humid environment at room temperature for 16 hours. On completion of the incubation the donor and acceptor plates were separated. 150 μL of solution was transferred from each of the donor and acceptor PAMPA sandwich plates into High Sensitivity 96 well UV plates for analysis by UV. at different time points. The concentration of the compound in the acceptor compartment was determined using mass spectrometry. The permeability coefficient (Papp) was calculated based on the rate of appearance of the compound in the acceptor compartment (nm/s).

Compound	IC50 (human TRPM5)	CLint scaled at 1 μM [1]	IC50 (CYP2D6)	PAMPA perm. [2]	IC50 (CYP2D6; human, pH 7.4)	Papp at 16 h, 200 μM ([2]; PAMPA, read-out: PAMPA perm.)
Fc1cccc(-c2ccccc2NCc2nc3ccccc3o2)c1 [CMP343]	> 10 µM	> 900 mL/min/kg	> 50 µM	–	–	–
Fc1ccccc1-c1ccccc1NCc1nc2ccccc2o1 [CMP353]	> 10 µM	> 900 mL/min/kg	> 50 µM	low sensitivity	–	–
c1csc(-c2ccccc2NCc2nc3ccccc3o2)c1 [CMP355]	> 10 µM	> 900 mL/min/kg	> 50 µM	–	–	–
Cc1ccsc1-c1ccccc1NCc1nc2ccccc2o1 [CMP369]	> 10 µM	> 900 mL/min/kg	–	–	> 50 µM	–
Nc1ccccc1-c1ccccc1NCc1nc2ccccc2o1 [CMP457]	> 30 µM	900 mL/min/kg	> 50 µM	–	–	37.4 ×10⁻⁶ cm/s
